This assay deals with acetylated tubulin (Lys40) in HeLa cells. Kind of assay: Acetylated α-tubulin measurement in vitro (immunocytochemistry). The assay is classed as cell-based. Conditions: Homo sapiens, 6 hours incubation, acetylated tubulin (Lys40) by immunocytochemistry, read-out: IC50 (Tubulin deacetylation). Summed up: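 HeLa cells in serum-free medium treated 6 h at 37 °C (final DMSO 0.1–0.4%), then PFA-fixed and immunostained for acetyl-Lys40 and total α-tubulin; high-content imaging.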

Consider `CS(=O)(=O)NCCc1ccc(C(=O)CSc2nc(C(F)(F)F)nc3ccccc23)s1` [Example 98, N-(2-(5-(2-((2-(trifluoromethyl)quinazolin-4-yl)thio)acetyl)thiophen-2-yl)ethyl)methanesulfonamide], for which the IC50 lay in the range of 1000 to 3330 nM.

Source of the values: US12421222B2 (AUGUSTINE THERAPEUTICS, priority 2021, dated 2025).
